Source: patent publication US20020132782A1, “9-amino erythromycin derivatives with antibacterial activity” (priority 2001, published 2002)
≈ marks a conversion by molar mass, not a printed value.

Assays:
Assay in all cases: In vitro assay of antibacterial activity (agar dilution MIC)
Type in all cases: cell-based
[1] = test system: Streptococcus pyogenes EES61; details: organism code DD, BHI agar, 35-37° C., 20 to 24 hours
Description: (§1) Representative compounds of the present invention were assayed in vitro for antibacterial activity as follows: Twelve petri dishes containing successive aqueous dilutions of the test compound mixed with 10 mL of sterilized Brain Heart Infusion (BHI) agar (Difco 0418-01-5) were prepared. Each plate was inoculated with 1:100 (or 1:10 for slow-growing strains, such as Micrococcus and Streptococcus) dilutions of up to 32 different microorganisms, using a Steers replicator block. The inoculated plates were incubated at 35-37° C. for 20 to 24 hours. In addition, a control plate, using BHI agar containing no test compound, was prepared and incubated at the beginning and end of each test.
(§2) An additional plate containing a compound having known susceptibility patterns for the organisms being tested and belonging to the same antibiotic class as the test compound was also prepared and incubated as a further control, as well as to provide test-to-test comparability. […] After incubation, each plate was visually inspected. The minimum inhibitory concentration (MIC) was defined as the lowest concentration of drug yielding no growth, a slight haze, or sparsely isolated colonies on the inoculum spot as compared to the growth control.

[2] = test system: Streptococcus pneumoniae 5649; details: organism code JJ, BHI agar, 35-37° C., 20 to 24 hours
Description: as §1, §2

[3] = test system: Staphylococcus aureus 1775; details: organism code BB, BHI agar, 35-37° C., 20 to 24 hours
Description: as §1, §2

[4] = test system: Staphylococcus aureus ATCC 6538P; details: organism code AA, BHI agar, 35-37° C., 20 to 24 hours
Description: as §1, §2

[5] = test system: Streptococcus pneumoniae ATCC 6303; details: organism code GG, BHI agar, 35-37° C., 20 to 24 hours
Description: as §1, §2

[6] = test system: Streptococcus pyogenes PIU 2548; details: organism code FF, BHI agar, 35-37° C., 20 to 24 hours
Description: as §1, §2

[7] = test system: Haemophilus influenzae DILL AMP R; details: organism code CC, BHI agar, 35-37° C., 20 to 24 hours
Description: as §1, §2

[8] = test system: Streptococcus pneumoniae 5737; details: organism code HH, BHI agar, 35-37° C., 20 to 24 hours
Description: as §1, §2

[9] = test system: Streptococcus pyogenes 930; details: organism code EE, BHI agar, 35-37° C., 20 to 24 hours
Description: as §1, §2

Row | MIC [1] [µg/mL] | MIC [2] [µg/mL] | MIC [3] [µg/mL] | MIC [4] [µg/mL] | MIC [5] [µg/mL] | MIC [6] [µg/mL] | MIC [7] [µg/mL] | MIC [8] [µg/mL] | MIC [9] [µg/mL] | Structure (SMILES)
1 | 0.06 (≈ 0.0818 µM) | 16 (≈ 21.8 µM) | >100 | 0.2 (≈ 0.273 µM) | 0.06 (≈ 0.0818 µM) | 32 (≈ 43.6 µM) | 4 (≈ 5.45 µM) | – | – | CC[C@H]1OC(=O)[C@H](C)[C@@H](O[C@H]2C[C@@](C)(OC)[C@@H](O)[C@H](C)O2)[C@H](C)[C@@H](O[C@@H]2O[C@H](C)C[C@H](N(C)C)[C@H]2O)[C@](C)(O)C[C@@H](C)C(=O)[C@H](C)[C@@H](O)[C@]1(C)O [Ery. A, Erythromycin A, reference compound]
2 | 0.25 | 1 | >100 | 0.78 | 0.5 | 2 | 16 | >64 | – | CCC1OC(=O)C(C)C(=O)C(C)C(OC2OC(C)CC(N(C)C)C2O)C(C)(OCC=Cc2cnc3ccccc3c2)CC(C)C(N)C(C)C(O)C1(C)O (stereo not drawn) [Example 7, Compound of Formula (II): R^1 is (Quinolin-3-yl)CH═CHCH2; R^2 is Hydrogen; R^3 is Hydrogen; R^4 is Hydrogen; R^5 is Hydrogen; R^p is Hydrogen]
3 | 0.03 | 2 | >100 | 0.39 | 0.03 | 1 | 16 | 128 | >128 | CCC1OC(=O)C(C)C(=O)C(C)C(OC2OC(C)CC(N(C)C)C2O)C(C)(OCC=Cc2cnc3ccccc3c2)CC(C)C2NC(=O)OC(C2C)C1(C)O (stereo not drawn) [Example 8, Compound of Formula (II): R^1 is (Quinolin-3-yl)CH═CHCH2; R^2 is Hydrogen; R^3 and R^4 together are —C(O)—; R^5 is Hydrogen; R^p is Hydrogen]
4 | 1 | 32 | >100 | 0.2 | 2 | >128 | 32 | >128 | >128 | CCC1OC(=O)C(C)C(=O)C(C)C(OC2OC(C)CC(N(C)C)C2O)C(C)(OCC=Cc2cnc3ccccc3c2)CC(C)C(N)C(C)C2OC(=O)OC12C (stereo not drawn) [Example 9, Compound of Formula (II): R^1 is (Quinolin-3-yl)CH═CHCH2; R^2 is Hydrogen; R^3 is Hydrogen; R^4 and R^5 are —C(O)—; R^p is Hydrogen]
